Where a SMILES comes first, the peptide text is derived from it.
Biological target: T1, DppA (E. coli dipeptide binding protein) (Escherichia coli, UniProt P23847)
T1 sequence (P23847 29-535): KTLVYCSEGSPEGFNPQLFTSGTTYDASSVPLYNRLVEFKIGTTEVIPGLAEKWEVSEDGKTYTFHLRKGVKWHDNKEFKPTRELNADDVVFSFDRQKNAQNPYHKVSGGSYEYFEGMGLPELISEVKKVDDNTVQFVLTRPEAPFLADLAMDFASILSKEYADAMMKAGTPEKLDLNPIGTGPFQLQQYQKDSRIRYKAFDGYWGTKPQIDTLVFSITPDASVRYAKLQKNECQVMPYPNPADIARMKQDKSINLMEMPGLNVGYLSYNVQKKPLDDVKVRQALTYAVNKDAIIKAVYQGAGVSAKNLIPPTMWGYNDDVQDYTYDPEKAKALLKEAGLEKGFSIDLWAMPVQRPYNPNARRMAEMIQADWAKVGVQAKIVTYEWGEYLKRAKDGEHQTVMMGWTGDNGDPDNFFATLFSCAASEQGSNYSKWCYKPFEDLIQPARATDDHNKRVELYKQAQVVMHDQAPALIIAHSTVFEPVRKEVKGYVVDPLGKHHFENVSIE
Test: isothermal titration calorimetry
Description: isothermal titration calorimetry on DppA (E. coli dipeptide binding protein)

SMILES	Kd [nM]
C[C@H](N)C(=O)N[C@@H](C)C(=O)O [AA, Alanine–Alanine (A–A)] (H-Ala-Ala-OH)	37
C[C@H](N)C(=O)N[C@@H](Cc1ccccc1)C(=O)O [AF, Alanine–Phenylalanine (A–F)]	357
